According to patent US6855730B2, “3-methylidenyl-2-indolinone modulators of protein kinase” (Sugen, Inc., priority 1998, dated 2005):

How the values were obtained:
[1] = target: T1, chimeric receptor containing the EGFR extracellular domain and intracellular HER2 kinase domain (Homo sapiens, UniProt P04626); test: EGF Receptor-HER2 chimeric receptor assay in whole cells (ELISA); type: cell-based; conditions: read-out: HER-2 kinase IC50
T1 construct: fused on or other part: EGFR ectodomain + HER2 intracellular part, ATP-site indolinones: HER2's kinase
Method in brief: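 NIH3T3 cells overexpressing EGFR-extracellular/HER2-kinase chimera, seeded in 0.5% serum for ~40 h, were pretreated with compound (1% final DMSO) 2 h at 37 °C, then stimulated with 100 nM EGF for 5 min. Lysates captured on anti-EGFR plates; phosphotyrosine detected by anti-Ptyr/HRP ELISA at 410 nm as percent inhibition.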

[2] = tested on: SKOV3 cells; test: SKOV3 growth assay (2% FBS); type: cell-based; conditions: Homo sapiens, SK-OV-3, read-out: SKOV3 growth (2% FBS) IC50
[3] = tested on: A431 cells; test: A431 growth assay (2% FBS); type: cell-based; conditions: Homo sapiens, A-431, read-out: A431 growth (2% FBS) IC50

T1 sequence (P04626 720-1255 limits assumed, change not shown): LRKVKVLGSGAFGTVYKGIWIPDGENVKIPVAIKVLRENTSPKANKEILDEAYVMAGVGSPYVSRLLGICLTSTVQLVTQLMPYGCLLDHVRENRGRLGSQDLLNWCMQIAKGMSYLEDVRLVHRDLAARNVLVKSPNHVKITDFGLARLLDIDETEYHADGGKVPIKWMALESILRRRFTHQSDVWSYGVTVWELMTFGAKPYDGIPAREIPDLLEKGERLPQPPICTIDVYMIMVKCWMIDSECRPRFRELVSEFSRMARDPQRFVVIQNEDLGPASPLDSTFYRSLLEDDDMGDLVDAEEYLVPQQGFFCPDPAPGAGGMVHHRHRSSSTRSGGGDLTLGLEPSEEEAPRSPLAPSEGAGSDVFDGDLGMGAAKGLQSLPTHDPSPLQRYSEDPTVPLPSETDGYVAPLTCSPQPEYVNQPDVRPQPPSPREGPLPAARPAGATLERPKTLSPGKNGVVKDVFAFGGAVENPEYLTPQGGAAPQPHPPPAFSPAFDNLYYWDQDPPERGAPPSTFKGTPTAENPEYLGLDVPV

| Structure (SMILES) | IC50 [1] [µM] | IC50 [2] [µM] | IC50 [3] [µM] | melting point [°C] |
| --- | --- | --- | --- | --- |
| CCOC(=O)c1c(C)[nH]c(/C=C2\C(=O)Nc3ccc(Br)cc32)c1CCC(=O)O [Compound 114, 5-(5-Bromo-2-oxo-1,2-dihydroindol-3-ylidenemethyl)-4-(2-carboxyethyl)-2-methyl-1H-pyrrole-3-carboxylic acid ethyl ester] | 61.7 |  |  |  |
| Cc1cc(CCC(=O)O)c(/C=C2\C(=O)Nc3ccc(Br)cc32)[nH]1 [Compound 116, 3-[2-(5-Bromo-2-oxo-1,2-dihydroindol-3-ylidenemethyl)-5-methyl-1H-pyrrol-3-yl]-propionic acid] | 6.07 |  |  |  |
| COc1c(C(C)C)cc(/C=C2/C(=O)Nc3ccccc32)cc1C(C)C [Example 1, 3-(3,5-Diisopropyl-4-methoxybenzylidene)-1,3-dihydroindol-2-one] | 13.8 | 5.5 | 5.4 |  |
| COc1c(C(C)C)cc(/C=C2/C(=O)Nc3ccc(Cl)cc32)cc1C(C)C [Example 2, 5-Chloro-3-(3,5-diisopropyl-4-methoxybenzylidene)-1,3-dihydroindol-2-one] | 13.7 | 4.8 | 4.5 |  |
| COc1ccc2c(c1)NC(=O)/C2=C\c1[nH]c2c(c1CCC(=O)O)CCCC2 [Example 196, 3-[2-(6-Methoxy-2-oxo-1,2-dihydroindol-3-ylidenemethyl)-4,5,6,7-tetrahydro-1H-indol-3-yl]-propionic acid] |  |  |  | 263 to 266 |
